What is called melting point is the temperature, or range, at which the solid turns liquid.

Experimental findings from patent publication US6489351B1, “Condensed 4,5,6,7-tetrahydrobenzo[C]thiophenes as enhancer for cell differentation induction factor action” (Takeda Chemical Industries, Ltd., priority 1996, dated 2002) are described below.

For the first data set, the system named is stromal cells prepared from the femoral marrow of a normal rat. Nature of the data set: Osteogenesis-promoting action: alkaline phosphatase activity in rat femoral marrow stromal cells. Conditions: compound 10^−5 M; mean±SE; control 694.9 ± 22.7 (Experiment 1), 608.4 ± 20.9 (Experiment 2). It is filed as cell-based. Here is the method:
Using stromal cells prepared from the femoral marrow of a normal rat, alkaline phosphatase activity was determined as an index of osteogenesis. Specifically, stromal cells, prepared from the femoral marrow of a 7-week-old male Sprague-Dawley rat by the method of Maniatopoulos et al. [Cell Tissue Research, Vol. 254, p. 317 (1988)], were cultured in an α-MEM (minimum essential medium) solution containing both dexamethasone (10^−7 M) and β-glycerophosphoric acid (10^−2 M) to obtain calcified osteoid tissue. […] After washing with phosphate buffer, the cells were homogenized with 0.2% Nonidet P-40 and centrifuged at 3,000 rpm for 10 minutes. The resulting supernatant was assayed for alkaline phosphatase activity by the method of Lowry et al. [Journal of Biological Chemistry, Vol. 207, p. 19 (1954)]. The values obtained are given in mean±SE in Table 1. The data-were statistically analyzed by Student's t-test.
`CCNC(=O)c1sc(SC)c2c1CCc1sc(-c3ccccc3)nc1-2` [Example 50, N-ethyl-4,5-dihydro-8-methylthio-2-phenylthieno[3,4-e]benzothiazole-6-carboxamide]: the “Alkaline Phosphatase Activity (nmol p-nitrophenol/min/well)” value is 1,463 ± 33.4 nmol p-nitrophenol/min/well.

In the case of `CSc1sc(C(N)=O)c2c1-c1oc(C)nc1CC2` [Example 46], the “Alkaline Phosphatase Activity (nmol p-nitrophenol/min/well)” value is on record as 1,916.8 ± 26.3 nmol p-nitrophenol/min/well.

Staying with this data set, now noted: compound 10^−6 M; mean±SE; Experiment 3, control 63.1 ± 5.0.
For `CSc1sc(C(=O)NCc2ccncc2)c2c1-c1nc(-c3ccccc3)sc1CC2` [Example 91, N-(4-pyridylmethyl)-4,5-dihydro-8-methylthio-2-phenylthieno[3,4-e]benzothiazole-6-carboxamide], the “Alkaline Phosphatase Activity (nmol p-nitrophenol/min/well)” value is given as 123.2 ± 5.7 nmol p-nitrophenol/min/well.

Turning to `CON(C)C(=O)c1sc(SC)c2c1CCc1sc(-c3ccccc3)nc1-2` [Example 93, N-methoxy-N-methyl-4,5-dihydro-8-methylthio-2-phenylthieno[3,4-e]benzothiazole-6-carboxamide], the “Alkaline Phosphatase Activity (nmol p-nitrophenol/min/well)” value is 159.9 ± 17.5 nmol p-nitrophenol/min/well.

As for `CSc1sc(C(=O)Nc2cccnc2)c2c1-c1nc(-c3ccccc3)sc1CC2` [Example 92, N-(3-pyridyl)-4,5-dihydro-8-methylthio-2-phenylthieno[3,4-e]benzothiazole-6-carboxamide], the “Alkaline Phosphatase Activity (nmol p-nitrophenol/min/well)” value was 111.4 ± 2.1 nmol p-nitrophenol/min/well.

Tested on in the next data set: not given
Test: not given
Conditions: not given
`CCOC(=O)c1sc(SC)c2c1CCc1sc(-c3ccccc3)nc1-2` [Example 2, ethyl 4,5-dihydro-8-methylthio-2-phenylthieno[3,4-e]benzothiazole-6-carboxylate] showed a melting point of 153 to 154 °C.

In the case of `CCNC(=O)c1sc(SC)c2c1CCc1sc(-c3ccccc3)nc1-2` [Example 50, N-ethyl-4,5-dihydro-8-methylthio-2-phenylthieno[3,4-e]benzothiazole-6-carboxamide], the melting point fell in the range of 211 to 212 °C.

Take `CCOC(=O)c1sc(SC(C)C)c2c1CCc1nc(C)oc1-2` [Example 18, ethyl 4,5-dihydro-8-isopropylthio-2-methylthieno[3,4-g]benzoxazole-6-carboxylate]: the melting point was 62 to 63 °C.

`CCOC(=O)c1oc(SC)c2c1CCc1sc(-c3ccccc3)nc1-2` [Example 4, ethyl 4,5-dihydro-8-methylthio-2-phenylfuro[3,4-e]benzothiazole-6-carboxylate] came in with a melting point of 170 to 171 °C.

The compound `CSc1sc(C(=O)NCc2ccncc2)c2c1-c1nc(-c3ccccc3)sc1CC2` [Example 91, N-(4-pyridylmethyl)-4,5-dihydro-8-methylthio-2-phenylthieno[3,4-e]benzothiazole-6-carboxamide] gave a melting point of 189 to 190 °C.

`CON(C)C(=O)c1sc(SC)c2c1CCc1sc(-c3ccccc3)nc1-2` [Example 93, N-methoxy-N-methyl-4,5-dihydro-8-methylthio-2-phenylthieno[3,4-e]benzothiazole-6-carboxamide] came in with a melting point of 157 to 158 °C.

As to `Cc1nc2c(o1)-c1c(SC(C)C)sc(C(=O)O)c1CC2` [Example 33, 4,5-dihydro-8-isopropylthio-2-methylthieno[3,4-g]benzoxazole-6-carboxylic acid], the melting point fell in the range of 277 to 278 °C.

The compound `CSc1sc(C(=O)Nc2cccnc2)c2c1-c1nc(-c3ccccc3)sc1CC2` [Example 92, N-(3-pyridyl)-4,5-dihydro-8-methylthio-2-phenylthieno[3,4-e]benzothiazole-6-carboxamide] had a melting point of 230 to 231 °C.

`CCOP(=O)(Cc1ccc(NC(=O)c2cc3c(s2)-c2c(SC)sc(C(=O)Nc4ccc(CP(=O)(OCC)OCC)cc4)c2CC3)cc1)OCC` returned a melting point of 262 to 263 °C.

Compound `CCOC(=O)c1cc2c(s1)-c1c(SC)sc(C(=O)OCC)c1CC2` [Example 71, diethyl 4,5-dihydro-8-methylthiobenzo[2,1-c:3,4-b′]dithiophene-2,6-dicarboxylate] yielded a melting point of 107 to 108 °C.

With `CCOC(=O)c1sc(SC)c2c1CCc1nc(-c3ccccc3)[nH]c1-2` [Example 21, ethyl 4,5-dihydro-8-methylthio-2-phenylthieno[3,4-e]benzimidazole-6-carboxylate], the melting point lay within 218 to 219 °C.

For `CSc1sc(C(N)=O)c2c1-c1[nH]c(-c3ccccc3)nc1CC2` [Example 68, 4,5-dihydro-8-methylthio-2-phenylthieno[3,4-e]benzimidazole-6-carboxamide], the melting point was 206 to 207 °C.

The compound `CCCSc1sc(C(=O)OCC)c2c1C(=O)C(NC(=O)CC)CC2` (centres unmarked) [Example 13, ethyl 4,5,6,7-tetrahydro-4-oxo-5-propionylamino-3-propylthiobenzo[c]thiophene-1-carboxylate] gave a melting point of 191 to 192 °C.

The compound `CCCSc1sc(C(=O)OCC)c2c1-c1nc(-c3ccccc3)sc1CC2` [Example 3, ethyl 4,5-dihydro-2-phenyl-8-propylthiothieno[3,4-e]benzothiazole-6-carboxylate] showed a melting point of 125 to 126 °C.

On to `CCOC(=O)c1sc(SC)c2c1CCC(NC(C)=O)C2=O` (centres unmarked) [Example 11, ethyl 5-acetylamino-4,5,6,7-tetrahydro-3-methylthio-4-oxobenzo[c]thiophene-1-carboxylate], for which the melting point was 215 to 216 °C.

For the compound `CSc1sc(C(=O)O)c2c1-c1sc(-c3ccccc3)cc1CC2` [Example 75, 4,5-dihydro-8-methylthio-2-phenylbenzo[2,1-c:3,4-b′]dithiophene-6-carboxylic acid], the melting point lay in the range of 215 to 217 °C.

Consider `CSc1sc(C(N)=O)c2c1-c1sc(-c3ccccc3)cc1CC2` [Example 76, 4,5-dihydro-8-methylthio-2-phenylbenzo[2,1-c:3,4-b′]dithiophene-6-carboxamide], for which the melting point fell in the range of 192 to 193 °C.

With `CCOC(=O)c1sc(SC(C)C)c2c1CCC(NC(C)=O)C2=O` (centres unmarked) [Example 12, ethyl 5-acetylamino-4,5,6,7-tetrahydro-3-isopropylthio-4-oxobenzo[c]thiophene-1-carboxylate], the melting point fell in the range of 170 to 171 °C.

With `CCNC(=O)c1sc(SC)c2c1CCc1nc(C)oc1-2` [Example 55], the melting point is 175 to 176 °C.

Consider `CSc1sc(C(=O)O)c2c1-c1nc(-c3ccccc3)sc1CC2` [Example 23, 4,5-dihydro-8-methylthio-2-phenylthieno[3,4-e]benzothiazole-6-carboxylic acid], for which the melting point was 255 to 256 °C (dec.).

`CCCSc1sc(C(N)=O)c2c1-c1nc(-c3ccccc3)sc1CC2` [Example 37, 4,5-dihydro-2-phenyl-8-propylthiothieno[3,4-e]benzothiazole-6-carboxamide] showed a melting point of 203 to 204 °C.

`CCOC(=O)CSC1=C(C=O)CCc2c(C(=O)OCC)sc(SC)c21` [Example 70, ethyl 4-ethoxycarbonylmethylthio-5-formyl-6,7-dihydro-3-methylthiobenzo[c]thiophene-1-carboxylate] gave a melting point of 102 to 103 °C.

As to `CCOC(=O)c1sc(SC)c2c1CCC(C=O)=C2Cl` [Example 69, ethyl 4-chloro-5-formyl-6,7-dihydro-3-methylthiobenzo[c]thiophene-1-carboxylate], the melting point was in the range of 79 to 80 °C.

The compound `CSc1sc(C(=O)O)c2c1-c1nc(C)sc1CC2` [Example 22, 4,5-dihydro-2-methyl-8-methylthiothieno[3,4-e]benzothiazole-6-carboxylic acid] yielded a melting point of 273 to 274 °C.

`CCOC(=O)c1sc(SC)c2c1CCc1nc(C)oc1-2` [Example 17, ethyl 4,5-dihydro-2-methyl-8-methylthiothieno[3,4-g]benzoxazole-6-carboxylate] showed a melting point of 131 to 132 °C.

In the case of `CCOC(=O)c1sc(SC)c2c1CCc1sc(C)nc1-2` [Example 1, ethyl 4,5-dihydro-2-methyl-8-methylthiothieno[3,4-e]benzothiazole-6-carboxylate], the melting point fell in the range of 143 to 144 °C.

`CCCSc1sc(C(=O)O)c2c1-c1nc(-c3ccccc3)sc1CC2` [Example 24, 4,5-dihydro-2-phenyl-8-propylthiothieno[3,4-e]benzothiazole-6-carboxylic acid]: the melting point was 236 to 237 °C (dec.).
